Laboratory results published in patent US8829002B2, “Substituted methyl amines, serotonin 5-HT6 receptor antagonists, methods for production and use thereof” (priority 2010, dated 2014).

Key:
Type in all cases: in vivo
male mice of BALB/c line [1] = assay: Mice Behavior in the Elevated Plus Maze; conditions: 5 minutes, FIG. 7-9
Procedure: Anxiolytic (tranquilizing) action of compounds of the general formula 1 in “Mice Behavior in the Elevated Plus Maze” test. Compounds 1.1(9), 1.5 (1) and 1.8(7) were employed in the experiments. Arm length was 30 cm, width—5 cm, wall hight—15 cm. Two opposite arms were closed from both sides and end surfaces with transparent plexiglass; two others—lighted and opened. A mouse was placed in the maze center, and over a period of 5 minutes the number of opened and closed arms entries and duration of opened and closed arm entries were registered. […] Being in normal state animals avoid opened arms (index of preference makes 0.2-0.3). Compounds with anxiolytic activity (tranquilizing activity) run this value up to 0.5-0.6 and more, and also decrease the number of defecations without changing overall physical activity (general number of arm entries).

male mice of BALB/c line [2] = assay: Passive Avoidance of mice in the Shuttle Chamber, memory disturbed by MK-801; conditions: MK-801 0.1 mg/kg, intraperitoneally 30 min before training; FIG. 4-6
Mice of SHK line = assay: Prepulse inhibition of the startle response in mice (Apomorphine model); conditions: 1 mg/kg, 60 minutes before the test; FIG. 11
Procedure: Antipsychotic activity of compounds of the general formula 1 in “Prepulse inhibition of the startle response in mice” test. Mice of SHK line weighing about 24-30 g were used in the test. Experiments were carried out during light period of animal's diurnal. Apomorphine hydrochloride and Haloperidol were received from Sigma Chemicals Company, (USA). Apomorphine hydrochloride was dissolved in 0.1% solution of ascorbic acid prepared with sterilized water; it was introduced subcutaneously 15 minutes before the test. Haloperidol was dissolved in sterilized water using emulsifier Twin 80, it was introduced intraperitoneally 60 minutes before the test. Compound 1.5(1) was dissolved in sterilized water, it was introduced subcutaneously 60 minutes before the test. Injection volume was 10 ml/kg. Solution of ascorbic acid prepared with sterilized water and Twin 80 were injected to control group of animals.
The test instrument consisted of a chamber made of transparent plexiglass (manufacturer—Columbia Instruments Company, USA) and placed on a platform; the latter was lodged inside the sound insulating chamber. High frequency sound column transmitting acoustic stimulus was located 2 cm away from the platform. […] Level of background noise made up 65 dB. Each animal received 4 stimuli of single testing (pulse) stimulus of 50 ms duration and 105 dB or prepulsory stimulus (pre-pulse) of 20 ms duration and 85 dB, after which in 30 ms pulse stimulus of 50 ms duration and 105 dB followed. Time interval between repeated pulse or prepulse in combination with pulse stimuli made up 10 s. Inhibition of the startle in reply to prepulse-plus-pulse stimulus was calculated in percentage towards amplitude of startle in response to isolated pulse stimulus. Administration of Apomorphine, which is used in experiments on animals for modelling of psychoto-like conditions, caused reduction of prepulse inhibition of startle, which reflected the lowering of CNS ability to filter sensory stimulus. The experiment was also carried out using compounds 1.1(9) and 1.8(7).

male mice of BALB/c line [3] = assay: Tail suspension test; conditions: after 4 days administration in doses of 0.1 mg/kg; 3 minutes; FIG. 13
Procedure: Antidepressant action of compounds of the general formula 1 in tail suspension test. Experiments were carried out in aged male mice of BALB/c line weighing 20-24 grams. In the test mice were suspended by tail with scotch tape on holder over horizontal surface at a height of about 40 cm, and for 3 minutes the total duration of complete immobility episodes which is considered to be a measure of depressively-like state was registered. Automated computerized detection of motion with video system and Any-maze program were used in test.

male mice of BALB/c line [4] = assay: Porsolt's Forced Swim Test; conditions: after 4 days administration in doses of 1 mg/kg; last 5 minutes of 15 min test; FIG. 12
Procedure: Antidepressant action of antagonists of the general formula 1 in Porsolt's Forced Swim Test. The test apparatus represented a plastic vessel filled with water up to height of 18 cm at 20-22° C. Experiments were carried out in aged male mice of BALB/c line weighing 20-24 grams. An animal was placed in water and for 15 minutes the duration of immobile hanging in water—so named behavioural despaire which is considered to be a measure of depressively-like state, was registered. The last 5 minutes of the test were used for estimation. Automated computerized detection of motion with video system and Any-maze program were used in test.

male mice of BALB/c line [5] = assay: Passive Avoidance of mice in the Shuttle Chamber, memory disturbed by Scopolamine; conditions: Scopolamine 0.3 mg/kg, intraperitoneally 30 minutes before training; FIG. 1-3
Procedure: Nootropic action (enhancement of memory disturbed by Scopolamine) of compounds of the general formula 1 in the test “Passive Avoidance of mice in the Shuttle Chamber”. A shuttle chamber (Ugo Basile, Italy) consisted of two sections was used. […] The sections were connected through a hole which could be overlapped by vertical door. The floor of the dark section was made of transverse metal bars on which DC current impulses could be fed. Experiments were carried out in aged male mice of BALB/c line weighing 20-25 grams.
On the first day of the experiment 30 minutes before training mice were injected intraperitoneally with physiological solution, Scopolamine (0.3 mg/kg), or Scopolamine in combination with compound 1.5(1). Each group consisted of 8 animals at least. The animals were placed in the light section, and latent period of the first entry into the dark chamber was registered. Then the vertical door was closed and the animal was punished by 0.6 mA DC current for 3 seconds. After that the animal was taken back to its home cage. In 22-24 hours the same animal was placed again in the light section of the shuttle chamber and latent period of its first entry into the dark section, the total time of its stay in the light section and the number of entries into dark section were registered. Each monitoring lasted for 5 minutes. […]

Male rats of Vistar line = assay: Appetite Control Test; conditions: dose 10 mg/kg intraperitoneally 60 minutes before the test; 16 h food deprivation; FIG. 10
Procedure: Male rats of Vistar line weighing 230-360 g were housed in standard home cages with water and food available with the exception of short periods of food deprivation (16 hs) just before the Appetite test. The Appetite test was carried out in individual cages with overhead cover made of wire in the niches of which a portion of food granules was inserted. Mass of the granules was examined every 30 minutes for 3 h. On the basis of these measurements food consumption was estimated and stated in grams of food per kilogram of body mass. Placebo and compound 1.5(1) (dose 10 mg/kg) were injected intraperitoneally 60 minutes before the test. Each experimental group of animals consisted of 10 rats. Compound was dissolved in sterilized water. The injection volume was 10 ml/kg. Intact animals which were not undergone food deprivation, and animals after food deprivation, but injected with sterilized water, were used as control. Intact animals which were not undergone food deprivation and injected with sterilized water, were used as control. The experiment was carried out also using compounds 1.1(9) and 1.8(7).

Structure (SMILES) | Anxiolytic (tranquilizing) action (male mice of BALB/c line [1]) | Nootropic action (enhancement of memory disturbed by MK-801) (male mice of BALB/c line [2]) | Antipsychotic activity: prepulse inhibition of startle disturbed by Apomorphine (Mice of SHK line) | Antidepressant action: total duration of complete immobility (male mice of BALB/c line [3]) | Antidepressant action: duration of immobile hanging in water (behavioural despaire) (male mice of BALB/c line [4]) | Nootropic action (enhancement of memory disturbed by Scopolamine) (male mice of BALB/c line [5]) | Appetite (food consumption) after food deprivation (Male rats of Vistar line)
CNc1ccc(N2CCNCC2)cc1S(=O)(=O)c1cccc(F)c1 [1.1(9), methyl-[4-piperazin-1-yl-6-(3-fluorophenylsulfonyl)phenyl]-amine] | anxiolytic (tranquilizing) activity comparable to the activity of Buspirone and Lorazepam | produce nootropic action | prevented disturbance of prepulse inhibition of startle caused by Apomorphine | diminish the duration of complete immobility of mice | diminish the given parameter | produce nootropic action more effectively | capable to prevent appetite rising in rats
CNc1c(S(=O)(=O)c2ccccc2)cnc2c(N3CCNCC3)cccc12 [1.5 (1), methyl-(8-piperazin-1-yl-3-phenylsulfonylquinolin-4-yl)-amine] | anxiolytic (tranquilizing) activity comparable to the activity of Buspirone and Lorazepam | produce nootropic action | prevented disturbance of prepulse inhibition of startle caused by Apomorphine | diminish the duration of complete immobility of mice | diminish the given parameter | produce nootropic action more effectively | capable to prevent appetite rising in rats
O=C(CCCN1CCC(O)(c2ccc(Cl)cc2)CC1)c1ccc(F)cc1 [Haloperidol, reference compound] | – | – | prevented disturbance of prepulse inhibition of startle caused by Apomorphine | – | – | – | –
